The test system of data set [1] is CC49-TCO. The experiment in a line: Pretargeted PET/CT imaging in LS174T tumor xenograft bearing mice. The format is in vivo, Balb/c nude mice. The note with it: for tumor-to-blood (T/B) ratio: 1 h; for tumor uptake: mice pretreated with CC49-TCO 72 h prior; for tumor-to-muscle ratio in comparison: compared to [64Cu]Cu-NOTA-PEG7-H-Tz, [111In]Tz-Tg and ZZ; for tumor-to-muscle (T/M) ratio: image derived, 1 h p.i., animals pretargeted with CC49-TCO; for pharmacokinetics: pretargeted experiments in mice. How it is done:
The ability of [^18F]13 and [^18F]14 to be used as a pretargeting imaging agents was evaluated using a similar pretargeted setup that was used for the ex vivo blocking study in example 7. Mice were administered with CC49-TCO 72 h prior to administration of [^18F]13 or [^18F]14 where after PET/CT scanning was performed 1 h later. Control animals were injected with unconjugated mAb CC49 instead of CC49-TCO, but were otherwise treated exactly the same. After PET/CT scanning, animals were euthanized and an ex vivo biodistribution performed.
A) Pretargeted imaging of [^18F]13: Pretargeted imaging of [^18F]13 as tested in vivo using the TAG-72 targeting antibody CC49 in human colorectal cancer xenograft tumors LS174T. Tumors were established in 7-8 week old Balb/c nude mice and after one week, the animals were injected i.v. with either 50 ug […] TCO-modified CC49 (CC49-TCO, ˜7 TCO/mAb), or non-modified CC49 (control) (n=4 per group). 72 hours later, ^18F-13 (1.74±0.319 (mean±SD) MBq/100 μL (55.3 GBq/μmol) were injected i.v., followed by PET/CT-scan (Inveon®, Siemens Medical Solutions), one hour post injection. PET data was acquired in an energy window of 350-650 KeV and a time resolution of 6 ns followed by a CT scan (360 projections, 65 kV, 500 pA and 400 ms). PET and CT images were aligned by rigid affine registration, after which 3D regions of interest (ROI) were created on the full CT tumor volume, as well as heart and muscle tissue to quantify uptake of [^18F]13 (FIG. 6). Additionally, selected organs were harvested for ex vivo biodistribution. The radioactivity in the tissues were determined using a gamma counter (Wizard 2 , Perkin Elmer). Data was corrected for decay, tissue weight and the injected dose of radioactivity. GraphPad Prism 9 (GraphPad Software) was used for statistical analyses and plotting data. Statistical difference between mean % ID/g values were analyzed using Welch's T-test. Results were considered significant when p<0.05.
B) Pretargeted imaging of [^18]14: LS174T xenografts were established in mice as previously described. When tumors reached a size of ˜100 mm3 animals were matched based on their tumor volume and divided into two groups (tumor volumes of, n=5/group), and injected iv with 50 μg in 100 μL of either CC49-TCO or CC49. After 72 h the animals were administered iv with [^18F ]14(4.74±1.39 MBq in 100 μL) and PET/CT (Inveon, Siemens Medical Solutions, USA) scanned 1 h later, using a PET acquisition time of 5 min, an energy window of 350-650 KeV and a time resolution of 6 ns;
followed by a continuous 360 projections/360° CT scan, acquired with a x-ray tube voltage of 65 kV, a tube anode current of 500 pA and an exposure time per projection of 400 ms (FIG. 8). Mice were anaesthetized breathing 3% sevoflurane (5% for induction) mixed in 35% O2 in N2 and during scans the body temperature of the mice was kept stable using a heating pad.
Signograms from PET scans were reconstructed using a 3-dimensional maximum a posteriori algorithm with correction for scatter and attenuation. The mean percentage of injected dose per grams (% ID/g) was determined by manually creating regions of interest (ROI) on co-registered PET/CT images (Inveon Research Workplace software, Siemens Medical Solutions, USA).

Data set [2] in a line: Tetrazine core reactivity test with TCO-PNP. The note with it: for tetrazine core after radiolabeling: analytical chromatogram before and after TCO-PNP addition. The format is physicochemical. How it is done:
• a) The reaction between [^18F]13 TCO-PNP was performed by mixing the formulated [^18F]13 (200 μL) with 5 μL of the commercially available TCO-PNP ester dissolved in DMF (5 mg/mL) in an analytical HPLC vial. The solution was gently shaken and left for 1 min before it was injected on the analytical HPLC for analysis. • b) The reaction between [^18F]14 and TCO-PNB was performed by mixing the formulated [^18F]14 (200 μL) with 5 μL of the commercially available TCO-PNB ester dissolved in DMF (5 mg/mL) in an analytical HPLC vial. The solution was gently shaken and left for 1 min before it was injected on the analytical HPLC for analysis.

Data set [3] is described as follows: Bench stability by analytical HPLC. In kind it is physicochemical. How it is done: The stability of [^18F]13 and it precursor (28) was investigated by analytical HPLC. [^18F]13 was stable for at least 4 hours and therefore, sufficient for most applications (FIG. 5A). […] The process could be prevented storing the precursor (28) at −20° C. as a solid—at least for 3 months (FIG. 5B).

Data set [4] concerns CC49-TCO. The experiment in a line: Ex vivo blocking assay: blocking of [111In]Tz-Tg binding to CC49-TCO in LS174T tumor xenografts. Set-up: species or system nude BALB/c mice. The conditions noted are these: for Normalized Tumor blocking effect: change in tumor uptake of [111In]Tz-Tg 22 h p.i., Tz administered 1 h prior, normalized to non-blocked control, mean from n = 3 mice/group. How it is done:
FIG. 3 show a schematic display of the blocking assay. The blocking effect of non-radiolabeled Tz was determined as the change in tumor uptake of [111 1n]Tz-Tg 22 h p.i. Each Tz was administered 1 h prior to [111 1n]Tz-Tg and the uptake normalized to a group of animals were no blocking was performed (control).
The inventors have recently developed a blocking assay that allows to assess the in vivo ligation performance of unlabeled tetrazine derivatives. This assay omits time-consuming development of radiolabeled tetrazines for every ligand to be tested. In this assay, binding of [^111In]Tz-Tg (see structure in example 7), a literature described pretargeted imaging agent, is blocked in vivo to the pretargeting vector CC49-TCO (described in Stéen, J.; Jørgensen, J. T.; Christoph, D.; Battisti, U. M.; Nørregaard, K.; Edem, P.; Bratteby, K.; Shalgunov, V.; Martin, W.; Svatunek, D.; Poulie, C. B. M.; Hvass, L.; Simon, M.; Thomas, W.; Rossin, R.; Robillard, M.; Kristensen, J. L.; Mikula, H.; Kjaer, A.; Herth, M. Lipophilicity and Click Reactivity Determine the Performance of Bioorthogonal Tetrazine Tools in Pretargeted in Vivo Chemistry; 2020 Dec. 24, 2020.), which was administered 72 h prior. The blocking effect of the unlabeled tetrazine derivatives is afterwards quantified via an ex vivo biodistribution study and normalized to the binding of [^111In]Tz-Tg determined without any blocking.
All animal studies were approved by the Danish Animal Welfare Council, ministry of Justice. Five weeks old female nude BALB/c mice (Charles River, Sulzfeld, Germany) were allowed to acclimatize for one week with access to water and chow ad libitum. Human colon cancer cell line (LS174T; obtained from ATCC) was cultured in minimum essential medium (MEM) supplemented with 10% fetal bovine serum, 1% L-glutamine, 1% sodium pyruvate, 1% non-essential amino acids, and 1% penicillin-streptomycin at 37° C. and 5% CO2. Cells were harvested by trypsinization at a confluence of 70-90% and subcutaneous tumors were established in the left flank of the 6 weeks old animals by inoculation of 5×10^6 LS174T cells resuspended in sterile PBS (100 μL) and allowed to grow for 7-10 days. Tumors were measured using a caliper and the volume calculated using the formula volume=1/2 (length×width 2).
Tumor-bearing animals were matched in groups based on their tumor volume (tumor volumes of ˜100-300 mm^3, n=3 in each group) and were administered 100 μg/100 μL of CC49-TCO (100 μg/100 μL, ˜7 TCO/mAb) per mouse. After 3 days, animals were injected with non-radioactive Tz (10-20 nmol). After 1 h, they were administered with IniTz-Tg (˜13 MBq/100 μL, 1-2 nmol) via the tail vein. [^111In]Tz-Tg was obtained and radiolabeled as previously described in Borjesson, P. K.; Jauw, Y. W.; de Bree, R.; Roos, J. C.; Castelijns, J. A.; Leemans, C. R.; van Dongen, G. A.; Boellaard, R. Radiation dosimetry of 89 Zr-labeled chimeric monoclonal antibody U36 as used for immuno-PET in head and neck cancer patients. J Nucl Med 2009, 50, 1828-36. The mice were euthanized after 22 h and tumor, blood, heart, lung, liver, spleen, kidney, and muscle were resected. All tissues were weighted, and the radioactivity measured in a gamma counter (Wizard2, Perkin Elmer) and data was corrected for decay, tissue weight and injected amount of radioactivity. FIG. 3 illustrate the workflow of the blocking assay.

Consider `O=C(O)CN(CC(=O)O)Cc1ccc(-c2nncnn2)cc1OCC[18F]` [[^18F]13], for which, in the data set with CC49-TCO [1], the “tumor-to-blood (T/B) ratio” value turned out to be 1.2, the “tumor-to-muscle ratio in comparison” value was “highest”, the “tumor-to-muscle (T/M) ratio” value is given as 20.1 and the pharmacokinetics result was “favorable”. The “Uptake in tissues beside tumor and blood” value with CC49-TCO [1] (PET/CT 1 h p.i.) is recorded as “low”. The “tumor uptake, control” value in the data set with CC49-TCO [1] (PET/CT 1 h p.i., control mice injected with unconjugated CC49 72 h prior, mean±S.E.M) is 0.01±0.01 % ID/g. For the same molecule, the tumor uptake in the data set with CC49-TCO [1] (PET/CT 1 h p.i., mean±S.E.M) was found to be 1.87±0.31 % ID/g. Further, in data set [2] (after 4 hours at r.t.), the “ability to react with TCO-PNP” value was “quantitatively”. Moreover, in data set [2], the “tetrazine core after radiolabeling” value is given as “intact”. Besides, the “Stability at r.t. over 4 hours” value in data set [3] (after 4 hours at r.t.) was “no signs of decomposition”. Besides, the time stable result in data set [3] (formulated tracer at r.t., analytical HPLC) was “at least 4 hours”.

For the molecule `O=C(O)C(F)(F)F.O=C(O)CN(CCF)Cc1cccc(-c2nncnn2)c1` [Compound 10, N-(3-(1,2,4,5-tetrazin-3-yl)benzyl)-N-(carboxymethyl)-2-fluoroethanaminium 2,2,2-trifluoroacetate], the “Normalized Tumor blocking effect” value with CC49-TCO [4] is reported as 75.

Regarding `CC(C)(C)OC(=O)CN(CC(=O)OC(C)(C)C)Cc1ccc(-c2nncnn2)cc1OCCOS(=O)(=O)c1ccc([N+](=O)[O-])cc1` [Compound 28, Di-tert-butyl 2,2′-((2-(2-(((4-nitrophenyl)sulfonyl)oxy)ethoxy)-4-(1,2,4,5-tetrazin-3-yl)benzyl)azanediyl)diacetate], the stability of precursor entry in data set [3] (analytical HPLC) is on record as “decomposed over time”. The time stable entry in data set [3] (dissolved (25 mg/mL) in DMSO and frozen at −20° C.) is given as “at least 3 months”; in data set [3] (stored at −20° C. as a solid) it was at least 3 months.

With `O=C(O)CN(CC(=O)O)Cc1ccc(-c2nnc(-c3ccc(OCC[18F])cn3)nn2)nc1` [[^18F]14], in the data set with CC49-TCO [1], the “tumor-to-blood (T/B) ratio” value is listed as 0.8, the “tumor-to-muscle ratio in comparison” value is recorded as “highest”, the “tumor-to-muscle (T/M) ratio” value is recorded as 9.0 and the pharmacokinetics result was “favorable”. Also, the “Uptake in muscle tissue” value with CC49-TCO [1] (PET/CT 1 h p.i.) is “generally low”. The “uptake in blood (heart used as a surrogate)” value with CC49-TCO [1] (PET/CT 1 h p.i., CC49-TCO group) is given as “high”. Also, the tumor uptake in the data set on CC49-TCO [1] (PET/CT 1 h p.i., mean±S.E.M) is reported as 1.8±0.3 % ID/g. For the same molecule, in data set [2], the “tetrazine core after radiolabeling” value was “intact”.

Regarding `O=C(O)C(F)(F)F.O=C(O)CN(CCF)Cc1ccc(-c2nncnn2)cc1F` [Compound 11, N-(carboxymethyl)-2-fluoro-N-(2-fluoro-4-(1,2,4,5-tetrazin-3-yl)benzyl)ethanaminium 2,2,2-trifluoroacetate], the “Normalized Tumor blocking effect” value in the data set with CC49-TCO [4] stood at 69.

As to `O=C(O)C(F)(F)F.O=C(O)CN(CC(=O)O)Cc1ccc(-c2nncnn2)cc1OCCF` [Compound 13, 1-Carboxy-N-(carboxymethyl)-N-(2-(2-fluoroethoxy)-4-(1,2,4,5-tetrazin-3-yl)benzyl) methanaminium 2,2,2-trifluoroacetate], the “Normalized Tumor blocking effect” value in the data set on CC49-TCO [4] amounted to 98.

With `O=C(O)C(F)(F)F.O=C(O)CN(CCF)Cc1ccc(-c2nncnn2)cc1` [Compound 12, N-(4-(1,2,4,5-tetrazin-3-yl)benzyl)-N-(carboxymethyl)-2-fluoroethanaminium 2,2,2-trifluoroacetate], the “Normalized Tumor blocking effect” value in the data set on CC49-TCO [4] stood at 69.

On to `O=C(O)C(F)(F)F.O=C(O)CN(CC(=O)O)Cc1ccc(-c2nnc(-c3ccc(OCCF)cn3)nn2)nc1` [Compound 14, 1-Carboxy-N-(carboxymethyl)-N-((6-(6-(5-(2-fluoroethoxy)pyridin-2-yl)-1,2,4,5-tetrazin-3-yl)pyridin-3-yl)methyl)methanaminium 2,2,2-trifluoroacetate], for which, in the data set with CC49-TCO [4] (blocking of [111In]Tz-Tg binding to CC49-TCO in vivo), the blocking effect is given as 99%. For the same molecule, the “Normalized Tumor blocking effect” value with CC49-TCO [4] worked out at 99.

Take `O=C(O)C(F)(F)F.O=C(O)CN(CCF)Cc1cc(F)cc(-c2nncnn2)c1` [Compound 9, N-(carboxymethyl)-2-fluoro-N-(3-fluoro-5-(1,2,4,5-tetrazin-3-yl)benzyl)ethanaminium 2,2,2-trifluoroacetate]: the “Normalized Tumor blocking effect” value in the data set on CC49-TCO [4] is 76.

(Values after patent US20240182382A1, “ALIPHATIC 18F-RADIOLABELING OF A TETRAZINE PRECURSOR” (UNIVERSITY OF COPENHAGEN, priority 2021, published 2024).)
